One data set has as its target Adenosine receptor A2a (Rattus norvegicus, UniProt P30543). Put plainly: Inhibitory activity against Adenosine A2a receptor using [3H]NECA in rat striatal membranes. In kind it is cell membranes, Striatum, Membrane.
The target in a further data set is T1, Adenosine receptor A1 (Rattus norvegicus, UniProt P25099).
T1 sequence (P25099 whole entry): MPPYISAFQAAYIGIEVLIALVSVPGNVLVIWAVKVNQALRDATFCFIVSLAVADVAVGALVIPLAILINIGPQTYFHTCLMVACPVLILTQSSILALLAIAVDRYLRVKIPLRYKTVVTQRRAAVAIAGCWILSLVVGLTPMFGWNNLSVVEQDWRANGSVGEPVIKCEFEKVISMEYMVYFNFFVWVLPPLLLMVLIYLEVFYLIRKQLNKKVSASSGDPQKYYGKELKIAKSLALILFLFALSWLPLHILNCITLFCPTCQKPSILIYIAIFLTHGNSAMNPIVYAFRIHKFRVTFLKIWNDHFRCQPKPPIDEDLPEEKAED
The experiment in a line: Inhibitory activity against Adenosine A1 Receptor using [3H]CHA in rat cortical membranes. In kind it is cell membranes.

Data set [1] is described as follows: Water solubility was measured. The data set is classed as ADME.

A word on the IC50: it is the concentration that gives 50% inhibition. A low value points to inhibition by little substance. The solubility is the dissolved amount per volume that the medium holds. Low readings indicate little dissolved substance, high ones much dissolved substance.

Sequence of Adenosine receptor A2a (P30543 whole entry): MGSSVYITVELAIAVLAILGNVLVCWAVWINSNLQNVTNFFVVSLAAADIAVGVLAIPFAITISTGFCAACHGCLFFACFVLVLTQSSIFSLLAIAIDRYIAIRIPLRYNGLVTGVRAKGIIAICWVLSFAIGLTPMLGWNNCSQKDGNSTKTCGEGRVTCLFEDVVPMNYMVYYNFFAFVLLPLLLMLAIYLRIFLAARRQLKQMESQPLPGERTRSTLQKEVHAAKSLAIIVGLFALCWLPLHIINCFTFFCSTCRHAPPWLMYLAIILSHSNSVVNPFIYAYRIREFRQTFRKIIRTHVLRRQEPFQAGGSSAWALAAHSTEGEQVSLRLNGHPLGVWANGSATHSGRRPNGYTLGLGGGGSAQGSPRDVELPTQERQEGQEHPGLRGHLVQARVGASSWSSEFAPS

Turning to `O=C(O)C[C@@H]1CCCC[C@H]1n1nc(-c2c(-c3ccccc3)nn3ccccc23)ccc1=O`, the 50% inhibitory concentration (IC50) against Adenosine receptor A2a came to 100 nM; against Adenosine receptor A1, 3.6 nM. For `O=C(O)C[C@H]1CCCC[C@H]1n1nc(-c2c(-c3ccccc3)nn3ccccc23)ccc1=O` the same measures were 5500 nM and 34 nM. Taken in the same sequence, the figures for `O=C(O)CCCn1nc(-c2c(-c3ccccc3)nn3ccccc23)ccc1=O` were 5900 nM and 120 nM.

In data set [1], `O=C([O-])CC1=C(n2nc(-c3c(-c4ccccc4)nn4ccccc34)ccc2=O)CCCC1.[Na+]` registered a solubility above 200000 µg/mL. With `O=C(O)CC1=C(n2nc(-c3c(-c4ccccc4)nn4ccccc34)ccc2=O)CCC1`, the figures for the IC50 against Adenosine receptor A2a and on Adenosine receptor A1 were 840 nM and 11 nM, respectively. Turning to `O=C(O)CC1=C(n2nc(-c3c(-c4ccccc4)nn4ccccc34)ccc2=O)CCCCC1`, the IC50 against Adenosine receptor A2a turned out to be 5500 nM; on Adenosine receptor A1, 16 nM.

As for `O=C(O)CC1=C(n2nc(-c3c(-c4ccccc4)nn4ccccc34)ccc2=O)CCCC1`, the values for the IC50 on Adenosine receptor A2a and against Adenosine receptor A1 were 6200 nM and 15 nM, respectively.

On to `O=C([O-])CCCn1nc(-c2c(-c3ccccc3)nn3ccccc23)ccc1=O.[Na+]`, for which the solubility in data set [1] turned out to be 10000 µg/mL. Take `O=C(/C=C/c1c(-c2ccccc2)nn2ccccc12)N1CCCC[C@@H]1CCO` [FK453]: the 50% inhibitory concentration (IC50) came to 11000 nM against Adenosine receptor A2a and 17 nM against Adenosine receptor A1.
